Results published in PubChem BioAssay AID2060620 (Molecular Pharmacology Branch, DTP, NCI, 2025).

Tested on: 328373-195-R-J1-PDC complex spheroids, viability % test/control
Assay: Anticancer human tumor 328373-195-R-J1-PDC patient-derived head and neck squamous carcinoma cell line growth inhibition [CLK]
Conditions: for IC50: curve of first compound; for viability, T/C: stronger effect = lower value
Outline: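 Patient-derived tumor cells grown as complex spheroids with HUVEC endothelial cells and mesenchymal stem cells, treated with drug combinations. Concentrations descend in half-log steps from near clinical Cmax, or from 10 microM if Cmax unknown.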

[1] = second compound 0.0316 µM, first compound 0.0316 µM
[2] = second compound 0.0316 µM, first compound 0.1 µM
[3] = second compound 0.0316 µM, first compound 0.316 µM
[4] = second compound 0.0316 µM, first compound 1 µM
[5] = second compound 0.0316 µM, first compound 3.16 µM
[6] = second compound 0.0316 µM, first compound 10 µM
[7] = second compound 0.1 µM, first compound 0.0316 µM
[8] = second compound 0.1 µM, first compound 0.1 µM
[9] = second compound 0.1 µM, first compound 0.316 µM
[10] = second compound 0.1 µM, first compound 1 µM
[11] = second compound 0.1 µM, first compound 3.16 µM
[12] = second compound 0.1 µM, first compound 10 µM
[13] = second compound 0.316 µM, first compound 0.0316 µM
[14] = second compound 0.316 µM, first compound 0.1 µM
[15] = second compound 0.316 µM, first compound 0.316 µM
[16] = second compound 0.316 µM, first compound 1 µM
[17] = second compound 0.316 µM, first compound 3.16 µM
[18] = second compound 0.316 µM, first compound 10 µM
[19] = second compound 1 µM, first compound 0.0316 µM
[20] = second compound 1 µM, first compound 0.1 µM
[21] = second compound 1 µM, first compound 0.316 µM
[22] = second compound 1 µM, first compound 1 µM
[23] = second compound 1 µM, first compound 3.16 µM
[24] = second compound 1 µM, first compound 10 µM
[25] = second compound 3.16 µM, first compound 0.0316 µM
[26] = second compound 3.16 µM, first compound 0.1 µM
[27] = second compound 3.16 µM, first compound 0.316 µM
[28] = second compound 3.16 µM, first compound 1 µM
[29] = second compound 3.16 µM, first compound 3.16 µM
[30] = second compound 3.16 µM, first compound 10 µM
[31] = second compound 10 µM, first compound 0.0316 µM
[32] = second compound 10 µM, first compound 0.1 µM
[33] = second compound 10 µM, first compound 0.316 µM
[34] = second compound 10 µM, first compound 1 µM
[35] = second compound 10 µM, first compound 3.16 µM
[36] = second compound 10 µM, first compound 10 µM
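Also: spheroids exposed to the agents for 7 days.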

Which results are given for `CC(C)CC(NC(=O)C(Cc1ccccc1)NC(=O)c1cnccn1)B(O)O` (stereo unspecified) + CNC(=O)c1ccc(Nc2nc(OC3CCCC3)c3c(-c4ccc5nc(C)oc5c4)c[nH]c3n2)c(OC)c1?
IC50 (second compound 0.0316 µM): 1.43 nM; IC50 (second compound 0.1 µM): < 0.949 nM; IC50 (second compound 0.316 µM): < 0.949 nM; IC50 (second compound 1 µM): < 0.949 nM; IC50 (second compound 3.16 µM): < 0.949 nM; IC50 (second compound 10 µM): < 0.949 nM; viability, T/C (second compound 0.0316 µM, first compound 0.000949 µM): 75.7%; viability, T/C (second compound 0.0316 µM, first compound 0.003 µM): 3.15%; viability, T/C (second compound 0.0316 µM, first compound 0.00949 µM): 0.27%; viability, T/C (second compound 0.0316 µM, first compound 0.03 µM): 0.18%; viability, T/C (second compound 0.0316 µM, first compound 0.0949 µM): 0.2%; viability, T/C (second compound 0.0316 µM, first compound 0.3 µM): 0.32%; viability, T/C (second compound 0.1 µM, first compound 0.000949 µM): 12.8%; viability, T/C (second compound 0.1 µM, first compound 0.003 µM): 4.91%; viability, T/C (second compound 0.1 µM, first compound 0.00949 µM): 0.98%; viability, T/C (second compound 0.1 µM, first compound 0.03 µM): 0.14%; viability, T/C (second compound 0.1 µM, first compound 0.0949 µM): 0.16%; viability, T/C (second compound 0.1 µM, first compound 0.3 µM): 1.45%; viability, T/C (second compound 0.316 µM, first compound 0.000949 µM): 10.9%; viability, T/C (second compound 0.316 µM, first compound 0.003 µM): 5.82%; viability, T/C (second compound 0.316 µM, first compound 0.00949 µM): 0.17%; viability, T/C (second compound 0.316 µM, first compound 0.03 µM): 0.11%; viability, T/C (second compound 0.316 µM, first compound 0.0949 µM): 0.14%; viability, T/C (second compound 0.316 µM, first compound 0.3 µM): 0.13%; viability, T/C (second compound 1 µM, first compound 0.000949 µM): 9.47%; viability, T/C (second compound 1 µM, first compound 0.003 µM): 4.37%; viability, T/C (second compound 1 µM, first compound 0.00949 µM): 0.14%; viability, T/C (second compound 1 µM, first compound 0.03 µM): 0.08%; viability, T/C (second compound 1 µM, first compound 0.0949 µM): 0.12%; viability, T/C (second compound 1 µM, first compound 0.3 µM): 1.52%; viability, T/C (second compound 3.16 µM, first compound 0.000949 µM): 12.4%; viability, T/C (second compound 3.16 µM, first compound 0.003 µM): 3.42%; viability, T/C (second compound 3.16 µM, first compound 0.00949 µM): 0.15%; viability, T/C (second compound 3.16 µM, first compound 0.03 µM): 0.09%; viability, T/C (second compound 3.16 µM, first compound 0.0949 µM): 0.24%; viability, T/C (second compound 3.16 µM, first compound 0.3 µM): 0.19%; viability, T/C (second compound 10 µM, first compound 0.000949 µM): 14.2%; viability, T/C (second compound 10 µM, first compound 0.003 µM): 2.54%; viability, T/C (second compound 10 µM, first compound 0.00949 µM): 0.2%; viability, T/C (second compound 10 µM, first compound 0.03 µM): 0.64%; viability, T/C (second compound 10 µM, first compound 0.0949 µM): 0.3%; viability, T/C (second compound 10 µM, first compound 0.3 µM): 0.6%

With `CC1COCCN1c1cc(C2(S(C)(=N)=O)CC2)nc(-c2ccnc3[nH]ccc23)n1` (stereo unspecified) + CNC(=O)c1ccc(Nc2nc(OC3CCCC3)c3c(-c4ccc5nc(C)oc5c4)c[nH]c3n2)c(OC)c1 as the compound, how does the IC50 (second compound 0.0316 µM) read?
Its IC50 is 216 nM.

What about the IC50 (second compound 0.1 µM) of the same compound?
The IC50 was < 31.6 nM.

What about the IC50 (second compound 0.316 µM) of the same compound?
The IC50 was < 31.6 nM.

What about the IC50 (second compound 1 µM) of the same compound?
Its IC50 is < 31.6 nM.

And the IC50 (second compound 3.16 µM)?
Its IC50 is < 31.6 nM.

And the IC50 (second compound 10 µM)?
Its IC50 is < 31.6 nM.

What about the viability, T/C [1] of the same compound?
Its viability, T/C is 64.5%.

What about the viability, T/C [2] of the same compound?
The viability, T/C was 54.4%.

And the viability, T/C [3]?
The viability, T/C was 45.9%.

And the viability, T/C [4]?
The viability, T/C was 39.2%.

And the viability, T/C [5]?
The viability, T/C was 18.9%.

And the viability, T/C [6]?
Its viability, T/C is 5.59%.

What about the viability, T/C [7] of the same compound?
Its viability, T/C is 13.4%.

What about the viability, T/C [8] of the same compound?
The viability, T/C was 10.1%.

What about the viability, T/C [9] of the same compound?
The viability, T/C was 8.26%.

What about the viability, T/C [10] of the same compound?
Its viability, T/C is 9.68%.

What about the viability, T/C [11] of the same compound?
Its viability, T/C is 5.72%.

What about the viability, T/C [12] of the same compound?
The viability, T/C was 3.41%.

What about the viability, T/C [13] of the same compound?
Its viability, T/C is 9.78%.

And the viability, T/C [14]?
Its viability, T/C is 9.55%.

And the viability, T/C [15]?
The viability, T/C was 8.53%.

And the viability, T/C [16]?
The viability, T/C was 6.94%.

And the viability, T/C [17]?
The viability, T/C was 5.01%.

What about the viability, T/C [18] of the same compound?
The viability, T/C was 4.53%.

What about the viability, T/C [19] of the same compound?
Its viability, T/C is 8.51%.

And the viability, T/C [20]?
The viability, T/C was 8.26%.

And the viability, T/C [21]?
Its viability, T/C is 8.32%.

And the viability, T/C [22]?
The viability, T/C was 6.7%.

And the viability, T/C [23]?
The viability, T/C was 5.13%.

What about the viability, T/C [24] of the same compound?
Its viability, T/C is 2.61%.

What about the viability, T/C [25] of the same compound?
Its viability, T/C is 10.1%.

What about the viability, T/C [26] of the same compound?
The viability, T/C was 10.7%.

And the viability, T/C [27]?
The viability, T/C was 8.57%.

What about the viability, T/C [28] of the same compound?
Its viability, T/C is 7.75%.

And the viability, T/C [29]?
The viability, T/C was 4.82%.

What about the viability, T/C [30] of the same compound?
Its viability, T/C is 2.48%.

And the viability, T/C [31]?
The viability, T/C was 12.3%.

What about the viability, T/C [32] of the same compound?
Its viability, T/C is 10.4%.

And the viability, T/C [33]?
Its viability, T/C is 8.76%.

What about the viability, T/C [34] of the same compound?
Its viability, T/C is 8.59%.

What about the viability, T/C [35] of the same compound?
The viability, T/C was 5.88%.

And the viability, T/C [36]?
Its viability, T/C is 2.34%.

What does the source list for `O=C(c1cc(Cc2n[nH]c(=O)c3ccccc23)ccc1F)N1CCN(C(=O)C2CC2)CC1` + CNC(=O)c1ccc(Nc2nc(OC3CCCC3)c3c(-c4ccc5nc(C)oc5c4)c[nH]c3n2)c(OC)c1?
IC50 (second compound 0.0316 µM): > 10000 nM; IC50 (second compound 0.1 µM): < 31.6 nM; IC50 (second compound 0.316 µM): < 31.6 nM; IC50 (second compound 1 µM): < 31.6 nM; IC50 (second compound 3.16 µM): < 31.6 nM; IC50 (second compound 10 µM): < 31.6 nM; viability, T/C [1]: 69.1%; viability, T/C [2]: 62.5%; viability, T/C [3]: 62.2%; viability, T/C [4]: 59.1%; viability, T/C [5]: 70.7%; viability, T/C [6]: 52.3%; viability, T/C [7]: 13.8%; viability, T/C [8]: 13.1%; viability, T/C [9]: 9.71%; viability, T/C [10]: 12.3%; viability, T/C [11]: 13.5%; viability, T/C [12]: 11.3%; viability, T/C [13]: 10.8%; viability, T/C [14]: 11.1%; viability, T/C [15]: 11.7%; viability, T/C [16]: 9.06%; viability, T/C [17]: 11.2%; viability, T/C [18]: 10.3%; viability, T/C [19]: 10.3%; viability, T/C [20]: 10%; viability, T/C [21]: 9.23%; viability, T/C [22]: 12%; viability, T/C [23]: 12.6%; viability, T/C [24]: 9.55%; viability, T/C [25]: 11.4%; viability, T/C [26]: 11.2%; viability, T/C [27]: 10%; viability, T/C [28]: 11.5%; viability, T/C [29]: 14.2%; viability, T/C [30]: 9.92%; viability, T/C [31]: 11.5%; viability, T/C [32]: 13.2%; viability, T/C [33]: 13.2%; viability, T/C [34]: 9.97%; viability, T/C [35]: 15.8%; viability, T/C [36]: 12.4%
